According to ChEMBL document CHEMBL5390243, “Catecholamine Derivatives: Natural Occurrence, Structural Diversity, and Biological Activity” (J Nat Prod, 2023):
Values belong to the compound of their own block, whether it stands above or below them.

Columns and labels:
[1] = target: Delta-type opioid receptor (Homo sapiens, UniProt P41143); assay: Binding affinity to DOR (unknown origin) assessed as inhibition constant
[2] = Cytotoxicity against rat NRK-52E cells assessed as inhibition of cell growth incubated for 24 hrs by CCK-8 assay; assay type: toxicity, cell-based
[3] = target: Glycogen synthase kinase-3 beta (Homo sapiens, UniProt P49841); assay: Inhibition of N-terminal His6-tagged human recombinant GSK3beta expressed in baculovirus-infected Sf21 cells incubated for 60 mins in presence of ATP by ADP-glo analysis
Sequence of Glycogen synthase kinase-3 beta (P49841 whole entry): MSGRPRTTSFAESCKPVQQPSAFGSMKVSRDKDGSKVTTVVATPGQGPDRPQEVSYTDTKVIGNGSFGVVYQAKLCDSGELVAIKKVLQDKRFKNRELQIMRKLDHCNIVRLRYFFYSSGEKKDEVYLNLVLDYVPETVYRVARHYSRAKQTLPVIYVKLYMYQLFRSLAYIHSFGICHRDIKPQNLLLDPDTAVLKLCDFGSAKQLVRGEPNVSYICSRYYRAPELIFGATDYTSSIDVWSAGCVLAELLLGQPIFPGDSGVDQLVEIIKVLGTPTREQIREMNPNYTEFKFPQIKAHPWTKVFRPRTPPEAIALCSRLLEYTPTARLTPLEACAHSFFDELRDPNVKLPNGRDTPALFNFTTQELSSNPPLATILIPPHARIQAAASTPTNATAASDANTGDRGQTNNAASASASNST

[4] = target: Cyclin-dependent kinase 5/CDK5 activator 1 (Homo sapiens, UniProt Q00535); assay: Inhibition of N-terminal full length human recombinant CDK5/p25 expressed in baculovirus-infected Sf21 cells incubated for 60 mins in presence of ATP by kinase-glo luminescent assay
Sequence of Cyclin-dependent kinase 5/CDK5 activator 1 (Q00535 whole entry, the tested form may be a part, canonical isoform): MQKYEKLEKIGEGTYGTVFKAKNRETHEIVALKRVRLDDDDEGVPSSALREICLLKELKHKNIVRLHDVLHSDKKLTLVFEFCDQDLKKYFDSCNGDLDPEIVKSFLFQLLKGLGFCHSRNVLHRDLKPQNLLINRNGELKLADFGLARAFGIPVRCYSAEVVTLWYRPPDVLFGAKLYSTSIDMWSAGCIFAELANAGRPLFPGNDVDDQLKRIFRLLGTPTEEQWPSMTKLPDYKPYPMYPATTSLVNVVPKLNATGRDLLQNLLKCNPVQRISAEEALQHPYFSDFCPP
Sequence of Cyclin-dependent kinase 5/CDK5 activator 1 (Q15078 whole entry, further chain, the tested form may be a part, canonical isoform): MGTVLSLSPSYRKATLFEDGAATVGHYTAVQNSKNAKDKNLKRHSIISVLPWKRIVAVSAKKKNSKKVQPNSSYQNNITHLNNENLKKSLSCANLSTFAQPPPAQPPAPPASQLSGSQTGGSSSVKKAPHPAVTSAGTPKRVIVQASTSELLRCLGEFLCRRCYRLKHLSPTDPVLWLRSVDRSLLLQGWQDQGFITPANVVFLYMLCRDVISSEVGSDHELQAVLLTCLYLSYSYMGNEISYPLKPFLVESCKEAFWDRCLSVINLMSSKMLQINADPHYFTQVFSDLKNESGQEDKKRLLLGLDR

[5] = target: Casein kinase I isoform delta (Homo sapiens, UniProt P48730); assay: Inhibition of N-terminal GST-tagged human recombinant CK1delta (1 to 294 residues) expressed in Escherichia coli incubated for 60 mins in presence of ATP by Kinase-glo luminescent assay
Sequence of Casein kinase I isoform delta (P48730 whole entry, the tested form may be a part, canonical isoform): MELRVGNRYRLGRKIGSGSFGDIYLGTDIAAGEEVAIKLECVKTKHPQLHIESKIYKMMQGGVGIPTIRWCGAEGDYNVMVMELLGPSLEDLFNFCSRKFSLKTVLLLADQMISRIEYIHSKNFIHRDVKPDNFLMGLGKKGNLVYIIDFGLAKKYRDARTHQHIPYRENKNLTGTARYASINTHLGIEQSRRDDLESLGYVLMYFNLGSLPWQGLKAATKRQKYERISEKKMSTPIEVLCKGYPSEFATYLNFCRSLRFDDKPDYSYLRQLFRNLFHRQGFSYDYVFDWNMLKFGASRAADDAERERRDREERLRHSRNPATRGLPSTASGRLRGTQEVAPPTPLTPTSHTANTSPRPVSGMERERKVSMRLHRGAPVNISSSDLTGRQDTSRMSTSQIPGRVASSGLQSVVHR

[6] = test system: Bacillus subtilis; assay: Antibacterial activity against Bacillus subtilis ATCC 6051 assessed as reduction in bacterial growth incubated for 18 to 24 hrs by broth microdilution method; assay type: functional, organism-based
[7] = test system: Bacillus subtilis; assay: Antibacterial activity against Bacillus subtilis ATCC 6633 assessed as reduction in bacterial growth incubated for 18 to 24 hrs by broth microdilution method; assay type: functional, organism-based

Sequence of Delta-type opioid receptor (P41143 whole entry): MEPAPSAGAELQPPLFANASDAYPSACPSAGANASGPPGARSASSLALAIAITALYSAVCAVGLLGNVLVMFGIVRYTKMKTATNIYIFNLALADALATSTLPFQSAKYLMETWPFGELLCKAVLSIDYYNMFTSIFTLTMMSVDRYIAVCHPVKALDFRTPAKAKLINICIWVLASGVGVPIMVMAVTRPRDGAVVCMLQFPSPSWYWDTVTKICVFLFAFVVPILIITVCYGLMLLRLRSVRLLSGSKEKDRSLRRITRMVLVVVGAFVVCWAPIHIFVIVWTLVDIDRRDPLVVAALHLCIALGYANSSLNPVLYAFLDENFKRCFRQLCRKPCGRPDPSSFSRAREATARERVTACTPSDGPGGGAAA

Ki [1]: 485 nM
Compound: N=C(N)NCCCC1=NCCc2cc(O)c(O)cc21

Compound: CC(=O)NCCc1ccc2c(c1)O[C@]1(NC(C)=O)[C@H](O2)c2cc(O)c(O)cc2[C@@H](c2ccc(O)c(O)c2)[C@@H]1NC(C)=O
IC50 at 24 h [2]: 30000 nM

IC50 [3]: 1600 nM
IC50 [4]: 10900 nM
IC50 [5]: 2300 nM
Compound: O=C(O)c1[nH]c2c(=O)oc3cc(O)c(O)cc3c2c1-c1ccc(O)c(O)c1
IC50 [6]: 3000 nM
IC50 [7]: 3800 nM
